Data from patent publication US6777440B2, “HIV integrase inhibitors” (Bristol-Myers Squibb Company, priority 2001, dated 2004).

Key:
HIV-integrase = biological target: T1, HIV-integrase (Human immunodeficiency virus type 1 group M subtype B, UniProt P04585); assay: HIV-integrase inhibition activity (SPA bead strand-transfer assay); format: biochemical; details: 50 μM compound; recombinant integrase
T1 construct: 0.26 ng of recombinant integrase was incubated with the beads
Experimental: For each reaction, 5 pmole of biotin labled substrate DNA was bound to 100 ug of Streptavidin coated PVT SPA beads (Amersham Pharmacia Biotech). 0.26 ng of recombinant integrase was incubated with the beads for 90 min at 37° C. Unbound enzyme was removed by washing the complex followed by addition of inhibitors and 0.1 fmol of P33 labeled target DNA. Reaction was stopped by adding EDTA to a final concentration of 10 mM. Samples were counted in TopCountNXT (Packard) and the CPM was used as a measure of integration. Reaction condition was as described in A. Engelman and R. Craigie, J. Virol. 69, 5908-5911 (1995). The sequences of substrate and target DNA were described in Nucleic Acid Research 22, 1121-1122 (1994). Compounds of this invention tested in this assay have IC50's of approximately 0.01 to 50 μM

[1] = system: single cycle, recombinant HIV virus expressing Renella luciferase; assay: Inhibition of HIV replication (single cycle recombinant virus, luciferase readout); format: cell-based; details: Human immunodeficiency virus 1, 120 h, read-out: % Inhibition @ 1.6 uM
Experimental: Cell culture assays were preformed using a single cycle, recombinant HIV virus expressing Renella luciferase. Anti-viral activity was evaluated by measuring the production of luciferase in the infected cells 5 days post-infection. Susceptibility of the virus to compounds was determined by incubation in the presence of the serially-diluted compound. The 50% effective concentration (EC50) was calculated by using the exponential form of the median effect equation where (Fa)=1/[1+(ED50/drug conc.)^m]. Compounds of this invention tested in this assay have EC50's of approximately 0.02 to 50 μM.

[2] = Hydrolysis of prodrugs under physiological conditions (pH 7, 37° C., HPLC); format: physicochemical; details: 25 mM phosphate buffer pH 7, 37° C.; for Compound 3: parent acid formed from 3-C; for Compound 3-C: remaining prodrug
Experimental: As shown in Scheme VII, compounds of Formula VII-A wherein R^1 and R^2 are as defined for Formula I, are hydrolyzed at pH 7 (37° C.) to yield the corresponding 2-hydroxy acrylic, VII-B, and are thus useful as prodrugs. [drawing 203]
In an experiment to measure the hydrolysis of compounds such as VII-A, compound 3-C was added to 25 mM phosphate buffer (pH 7) at a concentration of 0.03 mg/mL. The reaction was incubated at 37° C. for a period of 24 hours. Interval time points are analyzed by HPLC, identifying both the compound 3-C and compound 3, the parent acid.

SMILES: CON(Cc1ccc(F)cc1)C(=O)/C=C(\O)C(=O)O [Compound 3, 3-[(4-Fluoro-benzyl)-methoxy-carbamoyl]-2-hydroxy-acrylic acid]
- inhibition at 50 µM (HIV-integrase): 99.9%
- inhibition at 1.6 µM [1]: 96%
- Compound 3 ([2]; time 0 h): 0.001 mg/mL
- Compound 3 ([2]; time 0.5 h): 0.008 mg/mL
- Compound 3 ([2]; time 1 h): 0.012 mg/mL
- Compound 3 ([2]; time 1.5 h): 0.014 mg/mL
- Compound 3 ([2]; time 2 h): 0.016 mg/mL
- Compound 3 ([2]; time 4 h): 0.021 mg/mL
- Compound 3 ([2]; time 6 h): 0.022 mg/mL
- melting point: 129 °C (dec.)

SMILES: CON(Cc1ccccc1C)C(=O)/C=C(\O)C(=O)O [Compound 15, 2-Hydroxy-3-[methoxy-(2-methyl-benzyl)-carbamoyl]-acrylic acid]
- inhibition at 50 µM (HIV-integrase): 99%
- inhibition at 1.6 µM [1]: 33%
- melting point: 85 to 87 °C (dec.)

SMILES: CON(Cc1ccc(F)c(Cl)c1)C(=O)/C=C(\O)C(=O)O [Compound 5, 3-[(3-Chloro-4-fluoro-benzyl)-methoxy-carbamoyl]-2-hydroxy-acrylic acid]
- inhibition at 50 µM (HIV-integrase): 99.9%
- inhibition at 1.6 µM [1]: 96%

SMILES: CON(Cc1ccc(Cl)c(Cl)c1)C(=O)/C=C1\OC(C)(C)OC1=O [Compound 4-B, N-(3,4-Dichloro-benzyl)-2-(2,2-dimethyl-5-oxo-[1,3]dioxolan-4-ylidene)-N-methoxy-acetamide]
- inhibition at 1.6 µM [1]: 87%
- melting point: 119 to 120 °C

SMILES: CON(Cc1ccc(Cl)c(Cl)c1)C(=O)/C=C(\O)C(=O)O [Compound 4, 3-[(3,4-Dichloro-benzyl)-methoxy-carbamoyl]-2-hydroxy-acrylic acid]
- inhibition at 50 µM (HIV-integrase): 99.9%
- inhibition at 1.6 µM [1]: 90%

SMILES: CON(Cc1ccc(F)cc1)C(=O)/C=C1\OC(C)(C)OC1=O [Compound 3-C, 2-(2,2-Dimethyl-5-oxo-[1,3]dioxolan-4-ylidene)-N-(4-fluoro-benzyl)-N-methoxy-acetamide]
- inhibition at 1.6 µM [1]: 96%
- Compound 3-C ([2]; 3-C added at 0.03 mg/mL, time 0 h): 0.026 mg/mL
- Compound 3-C ([2]; time 0.5 h): 0.022 mg/mL
- Compound 3-C ([2]; time 1 h): 0.017 mg/mL
- Compound 3-C ([2]; time 1.5 h): 0.013 mg/mL
- Compound 3-C ([2]; time 2 h): 0.010 mg/mL
- Compound 3-C ([2]; time 4 h): 0.003 mg/mL
- Compound 3-C ([2]; time 6 h): 0.001 mg/mL
